PMC11802874, “The hypolipidemic effect of MI-883, the combined CAR agonist/ PXR antagonist, in diet-induced hypercholesterolemia model” (Nature Communications, 2025)
Where “and” joins values, the source holds several entries; their conditions need not be identical. Equal values may be shown once. Entries after “also recorded” stand apart in the source; their conditions may differ.

Legend:
[1] = tested on: FXR, LXRα, LXRβ, THα, GRα, PPARα, PPARδ/β, PPARγ, AhR, VD, ERα, ERβ, mouse Car; test: Nuclear receptor luciferase reporter panel (statements on the whole panel); format: cell-based
Description: (see Supplementary Chapter 7).
Thank you for the insightful question and comment. We have corrected the sentence to read:
Thank you for the idea. Yes, we conducted luciferase reporter assays in antagonistic "mode" for several nuclear receptors using their prototype ligands in the revised manuscript (Figure R7).
This information is included in the Supplementary Information.
Treatment with 5 and 10 µM
(1 picture or pasted object on this page, not shown here) […]
nM dexamethasone, 10 µM GW3965 (LXRα agonist), and 10 µM estradiol. Data are presented as a […]

[2] = tested on: PXB-mouse humanized liver mice (human hepatocytes); test: PXB-mouse humanized liver mice study; format: in vivo; parameters: key to BW: body weight in g; Cho / CHO in LDL / CHO in HDL / CHO in VLDL / CHO in Chylom / TG / TG in LDL / TG in HDL / TG in VLDL / TG in Chylo / rel LW: unit not given here
Experimental: PXB-mouse® are mice with background genotype: cDNA-uPAwild/+/SCID [cDNA-uPAwild/+: B6;129SvEv-Plau, SCID: C.B-17/Icr-scid /scid Jcl]. Mice contain human hepatocytes with an estimated replacement index of 70% or more in the liver, which is calculated based on the blood concentration of human albumin (h-Alb). Human hepatocytes for the experiment were obtained from BD195 (Corning Incorporated, Tewksbury, MA, USA).
Male mice (n = 5 per group) were used for the experiments with the following characteristics: 19 to 23 weeks old on Day 0, body weights on Day 0 (19.3 to 22.3 g), and blood h-Alb Level (from 9.1 to 15.0 mg/mL).
MI-883 was applied in the following vehicle: corn oil (90%)/DMSO (5%)/PEG30 (5%) formulation of MI-883 2.5 mg/kg (1.5 mL) to treated animals. The same vehicle was used in the control group. MI-883 was applied via p.o. gavage using disposable plastic sondes (Fuchigami Kikai Co., Kyoto, Japan) at the dose of 2.5 mg/kg every day ([…] -day 0-Day 7).
The target volume of blood (200 μL) was collected from all subject animals under isoflurane anesthesia via the retro-orbital plexus/sinus using calibrated pipettes (Drummond Scientific Company, PA, USA) at each time point after 4 h of fasting. Isoflurane inhalation solution was also used at the terminal blood sampling. The livers were snap-frozen in two or more pieces in one tube in liquid nitrogen. These frozen liver samples were stored at −80 °C. Urine was directly collected from the urinary bladder using a syringe. Bile was directly collected from the gallbladder using a syringe.
Serum h-ALT1 concentration was determined based on an Enzyme-Linked ImmunoSorbent Assay (ELISA) developed by the Institute of Immunology Co., Ltd (Tokyo, Japan) (for details see Supplementary, Chapter 11).
The clinical chemistry analyzer (BioMajestyTM Series JCA-BM6050, JEOL Ltd., Tokyo, Japan) was used to measure the blood h-Alb. LipoSEARCH to determine the serum level of total cholesterol, triglyceride, chylomicron, VLDL, LDL, and HDL was performed by SkyLight Biotech (Akita, Japan). Serum h-ALT1 concentration was determined based on an Enzyme-Linked ImmunoSorbent Assay (ELISA) developed by the Institute of Immunology Co., Ltd. (Tokyo, Japan). SpectraMax® ABS Plus Microplate Readers (Molecular Devices LLC, San Jose, CA, USA) were used for this measurement.

PXR LBD = target: T1, PXR LBD (Homo sapiens, UniProt O75469); test: TR-FRET PXR LBD competitive binding assay (LanthaScreen); conditions: recombinant PXR LBD
T1 construct: purchased ThermoFisher Scientific
T1 sequence (O75469 146-433 limits assumed): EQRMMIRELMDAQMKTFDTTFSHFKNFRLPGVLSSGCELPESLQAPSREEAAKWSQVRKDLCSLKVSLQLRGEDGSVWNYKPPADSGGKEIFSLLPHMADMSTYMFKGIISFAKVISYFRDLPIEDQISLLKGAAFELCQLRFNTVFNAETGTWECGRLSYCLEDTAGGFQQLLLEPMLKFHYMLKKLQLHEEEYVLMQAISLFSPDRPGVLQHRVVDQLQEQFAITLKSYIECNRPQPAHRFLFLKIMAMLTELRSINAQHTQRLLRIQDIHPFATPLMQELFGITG
Experimental: The LanthaScreen TR-FRET PXR Competitive Binding Assay (ThermoFisher Scientific, USA) was performed to evaluate interaction with PXR LBD as we described. The assay measures the ability of an evaluated compound to replace the fluorescent PXR ligand from the receptor. The fluorescence was measured using a Synergy 2 Multi-Mode Microplate Reader (BioTek Winooski, VT, USA) (n = 3).

PXR/NCOR2 = target: T2, PXR/NCOR2 (Homo sapiens, UniProt O75469); test: Mammalian two-hybrid PXR/corepressor NCOR2 release, HepG2; format: cell-based; parameters: key: firefly/Metridia luciferase activity ratio (normalized)
T2 construct: PXR-LBD (residues 108–434); expressed in transfected cells; host or cells: HepG2
T2 sequence (O75469 108-434): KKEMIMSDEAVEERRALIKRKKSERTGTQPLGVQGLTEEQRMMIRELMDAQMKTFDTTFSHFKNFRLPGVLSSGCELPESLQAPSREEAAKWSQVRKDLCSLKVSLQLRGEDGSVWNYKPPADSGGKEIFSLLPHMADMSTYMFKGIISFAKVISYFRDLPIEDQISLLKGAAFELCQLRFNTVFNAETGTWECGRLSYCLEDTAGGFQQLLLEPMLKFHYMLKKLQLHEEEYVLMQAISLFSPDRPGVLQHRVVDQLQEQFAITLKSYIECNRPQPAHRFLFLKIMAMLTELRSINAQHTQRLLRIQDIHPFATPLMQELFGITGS
T2 sequence (P19793 whole entry partner, the tested form may be a part): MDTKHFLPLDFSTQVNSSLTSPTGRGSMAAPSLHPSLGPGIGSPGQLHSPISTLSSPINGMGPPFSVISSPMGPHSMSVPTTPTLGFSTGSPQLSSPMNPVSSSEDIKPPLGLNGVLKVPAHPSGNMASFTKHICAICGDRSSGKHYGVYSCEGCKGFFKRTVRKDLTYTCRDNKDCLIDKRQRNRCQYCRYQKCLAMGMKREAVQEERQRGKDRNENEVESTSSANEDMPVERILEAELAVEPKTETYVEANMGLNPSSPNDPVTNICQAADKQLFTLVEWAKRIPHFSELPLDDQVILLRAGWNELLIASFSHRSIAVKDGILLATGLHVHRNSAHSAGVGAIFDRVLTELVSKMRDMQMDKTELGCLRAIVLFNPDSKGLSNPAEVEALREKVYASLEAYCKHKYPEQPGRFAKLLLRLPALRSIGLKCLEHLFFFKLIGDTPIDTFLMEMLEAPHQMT
Experimental: The GAL4-dependent pGL4-G5, harboring a pentamer of GAL4 binding sites in front of the E1b promoter was described before.
Transient batch transfection of HepG2 cells was done as described above. […] All transfections included 0.01 µg pMetLuc2control per well for normalization of firefly luciferase reporter activities. After overnight incubation with the transfection mixtures, cells were treated with chemicals in a volume of 100 µl of cell culture medium. […] Firefly luciferase activity was measured in 10 µl of cell lysates, and Metridia luciferase activity was analyzed in 10 µl of medium supernatant, both as described before. Results were normalized by dividing firefly luciferase activity by Metridia luciferase activity measured from the same well. Measurements of samples were repeated several times (n ≥ 3).

[3] = 2.5 mg/kg per day, one week, n = 5
[4] = FigS15, humanized liver mice, individual animals
[5] = FigS15, plasma total, individual animals
[6] = FigS15, plasma, individual animals
[7] = FigS17, individual animals, relative to control
[8] = humanized Liver mice, human gene, relative to control, individual animals
[9] = humanized Liver mice, mouse gene, relative to control, individual animals

## NC(=O)c1cc(Cn2cc(-c3c(-c4ccc(Cl)cc4)nc4cc(F)ccn34)nn2)ccc1Cl [MI-883, 2-chloro-5-((4-(2-(4-chlorophenyl)-7-fluoroimidazo[1,2-a]pyridin-3-yl)-1H-1,2,3-triazol-1-yl)methyl)benzamide]
[1]; 10 µM, 24 h, HepG2
  interactions with other tested nuclear receptors (agonist mode): no other interactions
[1]; 5 and 10 μM with prototype ligands
  inhibition of other nuclear receptors, antagonistic mode (FXR, THα, AhR, PPARα, PPARγ, GR, LXRα): not inhibit the other nuclear receptors
[2]; 2.5 mg/kg every day, 7 days
  liver enlargement (LW/BW ratio) in PXB humanized liver mice: did not observe significant liver enlargement
  proliferative biomarkers MDM2, PCNA, FOXM1 in PXB humanized liver mice: no significant effects
[2]; 2.5 mg/kg per day, one week
  human albumin or human ALT (h-ALT1): did not observe any increase
[2]; [3]
  LDL and HDL cholesterol plasma concentrations in PXB mice: tendency for a decrease in LDL and an increase in HDL
  total cholesterol concentration in PXB mice: did not reach statistical significance
[2]; [4]
  BW: 21.1 and 21.2 and 18.9 and 21.4
  rel LW: 12.7 and 13.9 and 18.9 and 13.7 and 15.2
[2]; FigS15, plasma biochemistry, individual animals
  h-ALT1: 32.4 and 23.1 and 36 and 38.8 and 27.9
[2]; [5]
  Cho: 59.5 and 63.3 and 87.8 and 100.6 and 69.3
  TG: 79.5 and 114.8 and 91.5 and 67.5 and 118.2
[2]; [6]
  CHO in Chylom: 0.4 and 0.8 and 0.7 and 0.6
  CHO in HDL: 16 and 14.3 and 11.7 and 8 and 13.8
  CHO in LDL: 26.1 and 26.5 and 51.9 and 65.5 and 32.2
  CHO in VLDL: 17 and 21.7 and 23.6 and 26.5 and 22.7
  TG in Chylo: 2.6 and 5 and 3.9 and 2.5 and 3.5
  TG in HDL: 3.2 and 3.7 and 4.2 and 3.6 and 4.3
  TG in LDL: 30.8 and 34.5 and 34.1 and 36.7 and 34
  TG in VLDL: 43 and 71.6 and 49.3 and 24.6 and 76.4
[2]; [7]
  ABCC4 mRNA (RT-qPCR in humanized liver mice): 1.98 and 1.27 and 2.64 and 0.98 and 0.66
  CYP2B6 mRNA (RT-qPCR in humanized liver mice): 7.04 and 2.86 and 13.89 and 12.41 and 7.61
  CYP3A4 mRNA (RT-qPCR in humanized liver mice): 0.35 and 0.63 and 1.62 and 10.03 and 6.65
  HMGCR1 mRNA (RT-qPCR in humanized liver mice): 0.23 and 0.46 and 0.39 and 0.62 and 1.11
  HMGCS2 mRNA (RT-qPCR in humanized liver mice): 3.19 and 1.63 and 2.91 and 2.97 and 2.16
  LDLR mRNA (RT-qPCR in humanized liver mice): 1.63 and 0.66 and 1.69 and 2.23 and 2.34
  SREBF1 mRNA (RT-qPCR in humanized liver mice): 0.27 and 0.47 and 0.58 and 0.76 and 1.32
  UGT1A1 mRNA (RT-qPCR in humanized liver mice): 3.46 and 1.67 and 5.52 and 2.7 and 2.14
[2]; Supplementary Fig. 17
  CYP2B6 mRNA in PXB humanized mice: upregulation
  CYP3A4 mRNA in PXB humanized mice: have not significantly changed; also recorded: not statistically significant induction
[2]; [8]
  Foxm1 RT-qPCR (Fig. 7d): 1.35 and 2.21 and 1.02 and 0.71 and 2.23
  MKI67 RT-qPCR (Fig. 7d): 0.96 and 0.82 and 1.24 and 0.52 and 0.59
[2]; [9]
  Foxm1 RT-qPCR (Fig. 7d): 0.92 and 1.07 and 0.75 and 0.53 and 0.33
  Mki67 RT-qPCR (Fig. 7d): 1.24 and 0.62 and 1.46 and 0.36 and 0.17
PXR LBD
  IC50: 100 ± 20 nM
PXR/NCOR2; MI-883 30 μM
  PXR/NCOR2 (SMRT) two-hybrid activity, replicates: 0.575 and 0.629 and 0.672 and 0.562 and 0.437
PXR/NCOR2; single agent: RIF (10 µM), MI-883 10 μM
  PXR/NCOR2 (SMRT) two-hybrid activity, replicates: 0.59 and 0.547 and 0.723 and 0.544 and 0.703
